The target in the assay is T1, human TAS1R2-WT (subunit alone) (Homo sapiens, UniProt Q8TE23).
T1 construct: expressed in transfected cells; host or cells: HEK293T-Gα16gust44
T1 sequence (Q8TE23 20-839): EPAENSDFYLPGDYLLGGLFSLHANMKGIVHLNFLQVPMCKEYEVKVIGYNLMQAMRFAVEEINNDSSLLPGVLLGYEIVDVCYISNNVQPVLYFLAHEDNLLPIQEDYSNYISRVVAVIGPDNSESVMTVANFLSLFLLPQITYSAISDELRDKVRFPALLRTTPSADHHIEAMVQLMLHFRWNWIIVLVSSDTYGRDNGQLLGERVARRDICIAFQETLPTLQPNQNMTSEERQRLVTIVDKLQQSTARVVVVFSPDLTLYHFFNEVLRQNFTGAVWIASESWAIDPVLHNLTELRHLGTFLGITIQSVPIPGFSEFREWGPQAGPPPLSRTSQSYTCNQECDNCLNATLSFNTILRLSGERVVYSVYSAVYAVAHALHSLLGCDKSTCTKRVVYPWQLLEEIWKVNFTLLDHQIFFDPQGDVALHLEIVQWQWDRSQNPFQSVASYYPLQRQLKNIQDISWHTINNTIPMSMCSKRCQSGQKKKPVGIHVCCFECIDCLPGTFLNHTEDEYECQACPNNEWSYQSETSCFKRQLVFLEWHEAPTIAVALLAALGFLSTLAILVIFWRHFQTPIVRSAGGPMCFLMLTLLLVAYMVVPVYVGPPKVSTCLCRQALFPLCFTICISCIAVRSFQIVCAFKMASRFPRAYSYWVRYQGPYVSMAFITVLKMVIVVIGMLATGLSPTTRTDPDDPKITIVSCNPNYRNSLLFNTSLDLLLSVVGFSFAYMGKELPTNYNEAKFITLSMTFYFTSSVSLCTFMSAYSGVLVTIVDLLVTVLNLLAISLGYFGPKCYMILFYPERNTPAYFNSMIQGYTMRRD
Put plainly: Calcium mobilisation assay, TAS1R2-WT subunit alone. Format: cell-based. From the text: The coding sequences for TAS1R2 and TAS1R3 were commercially synthesised, and the human codon was optimised for expression in human cells. The coding sequences of human TAS1R2 and TAS1R3 were subcloned and inserted into the mammalian expression vectors pcDNA6/myc-HisA and pcDNA4/myc-HisA (Invitrogen; Thermo Fisher Scientific; Illkirch, France) between the EcoRI and NotI restriction sites, generating the plasmids pcDNA6-TAS1R2 and pcDNA4-TAS1R3, respectively. To increase protein expression in mammalian cells, an upstream start codon was used, which was a sequence called MAX, corresponding to the QBI SP163 element also described in pcDNA4-HisMax (Invitrogen; Thermo Fisher Scientific; Illkirch, France). To measure the expression level of the receptor by immunohistochemistry, we used the FLAG sequence ([…]) in the C-terminal position, which encodes the FLAG tag epitope. […]
The HEK293T cells were kindly provided by Jay P. Slack (Givaudan Flavors Corporation; Cincinnati, OH, USA). […] The fluorescence intensity was measured for 90 s (excitation 488 nm, emission 510 nm) in an automated fluorometric FlexStation®3 Multi-Mode microplate reader (Molecular Devices; San Jose, CA, USA). […] The Ca^2+ changes were expressed as fractional changes in fluorescent light intensity: ΔF/F = (F − F0)/F0, where F was the fluorescent light intensity at each point, and F0 was the value of emitted fluorescent light prior to stimulus application. To calculate dose–response relationships, the changes in fluorescence upon stimulus application were averaged, mock-subtracted and baseline-corrected. […] The half-maximal effective concentrations (EC50 values) and maximal signal amplitudes were calculated using SigmaPlot software (version 15.0) (Systat Software; San Jose, CA, USA).
For in vitro calcium mobilisation assay performed on hTAS1R2-SNPs, hTAS1R3-SNPs and mTAS1R3-I60T, 6 to 7 concentrations were tested for each sweet compound, plus buffer alone. All concentration–receptor combinations were measured in duplicate, and each experiment was repeated at least 4 times (8 wells/concentration). […]

For `C=C(C)[C@@H]1CC=C(/C=N/O)CC1` [Perillartine, perillartine], the EC50 amounted to 90 ± 17 µM and the “R1 = Variant EC50/WT EC50” value worked out at 1.0. The “Max ΔF/F0” value (maximal signal amplitude) is reported as 1.06 ± 0.06.
